Data reported in US20240285594A1, “COMPOSITIONS AND METHODS FOR TREATING PAIN IN ANIMALS” (North Carolina State University, priority 2023, published 2024).
Entries after “also recorded” stand apart in the source; their conditions may differ.

What was measured:
cortisol = assay: Serum cortisol after surgical or sham castration of piglets (Part I, physiological assessment); format: in vivo
Protocol: A total of 197 Large White×Duroc cross male piglets from 35 litters were enrolled in the study (Table 1). Piglets were individually identified using ear tags (Allflex Global Piglet ear tags, Allflex Livestock Intelligence, Madison, WI), weighed and randomly allocated to one of eight treatment groups (FIG. 1).
Lidocaine was buffered by mixing 2 ml of 8.4% Sodium Bicarbonate to 20 ml of 2% lidocaine HCl injectable solution to achieve a pH of 6.8 (Lidocaine Hydrochloride, Covetrus, Dublin, Ohio, US). […] Piglets were held by both rear legs by one caretaker with the abdomen facing the individual administrating treatment. Buffered lidocaine was injected intra-inguinally (Picture 1) by a second caretaker using a ½ inch needle (Ideal® D3 20 Gauge, Neogen, Lansing, MI) inserted into a syringe (Prima Tech® 2 cc Bottle Mount Vaccinator, Prima Tech USA, Kenansville, NC). A total of 1.5 ml of buffered lidocaine per injection site was administered intramuscularly (IM) into each inguinal canal (left and right) at a 40-degree angle 5-7 cm from the scrotum and 2-3 cm from the abdominal wall. Piglets enrolled in the control treatment (C, S, CF, SF−T1: (C) Castration plus physiological saline (IM and IN; n=25); T2: (S) Sham plus physiological saline (IM and IN; n=25); T5: (CF) Castration plus flunixin (IN; n=25); T6: (SF) Sham plus flunixin (IN; n=24)) were handled in an identical manner and 1.5 ml of sterile saline was injected in the same two locations as described previously.
Immediately following intra-inguinal injection, piglets enrolled in the FM treatment groups were held in sternal recumbency by one individual and 2.2 mg/kg (Banamine®, Merck Animal Health, Madison, NJ, US) was administered in one nostril using was a MAD® nasal intranasal mucosal atomization device (Telefex Incorporated, Wayne, PA, US) attached to a Prima Tech® 0.5 cc bottle mount vaccinator. The same individual administered the treatment by gently holding the piglet's snout using their non-dominant hand to steady the head and administered the drug with the other hand. Piglets in the control group were handled in the same manner in an equivalent volume of 0.2 ml of sterile saline was administered as described above.
Castration was performed by one trained caretaker from the farm. Piglets were picked up, individually held by both hind legs with head down, and two vertical incisions were made through the skin of the scrotum over each testicle using a scalpel blade. Once the incisions were made, testicles were exposed, spermatic cords cut, and testicles were completely removed by traction. A sham castration was performed to mimic similar handling conditions in which piglets were picked up, held in the same manner, and had pressure applied to the scrotal area by the same individual responsible for castration.
Blood was collected 24 h prior to (−24 h), 1 h (1 h), and 24 h post castration (24 h, FIG. 2). Blood samples were collected using the technique described in other studies. The orbital sinus cavity was punctured using an Excel® disposable hypodermic needle 20G (Exel International, Quebec, Canada) and deposited into a 4 ml BD® red vacutainer serum tube (Med Vet International, Mettawa, IL). All tubes were maintained in a cooler and centrifuged (2,000×g for 15 min at 4° C.) no more than eight hours post-collection to separate serum. […]
Serum cortisol concentrations were quantified using a commercially available EIA kit (Arbor Assays DetectX Cortisol EIA Kit, Product #K003). […]

[1] = UPAPS behavioral pain scoring and rescue analgesia after castration (Part II); format: in vivo, piglets; details: -1 h, 0 h and +3 h relative to castration; compared to C (saline); listed as FM
Protocol: Behavior scoring was obtained in real-time by observing each piglet for 4-min continuously using Unesp-Botucatu pig acute pain scale (UPAPS). Each piglet was scored by one trained observer at the following timepoints: 1 h before castration (−1 h), immediately post-castration (0 h), and 3 h post-castration (+3 h, FIG. 3). The 4-min sampling time was obtained from the methodology previously validated. Treatments were masked, randomized, and applied to each piglet by a senior researcher. The Unesp-Botucatu UPAPS scale evaluates five behavioral items, with each item divided into four descriptive levels. A numerical score was designated from “0” to “3”, with a “0” representing normal behavior (free of pain) and “3” corresponding to pronounced behavioral deviation (severe pain). Therefore, for each timepoint, piglets may receive a score ranging from 0 (min) to 15 (max; Table 3). Total pain scores were then calculated for each piglet per timepoint. […] This is most referred to rescue analgesia in the literature; and was conducted for each behavioral assessment. Total counts were calculated for piglets identified as requiring or not requiring rescue analgesia by treatment and timepoint. […]

Cc1c(Nc2ncccc2C(=O)O)cccc1C(F)(F)F [flunixin meglumine]
cortisol concentrations (cortisol; 1 h, sham castrated piglets (SF and SLF)): lowest cortisol concentrations
cortisol concentrations (cortisol; 1 h post-castration, castrated piglets, compared to C (saline) and CL, FM 2.2 mg/kg intranasal, buffered lidocaine intra-inguinal, listed as FM): lower cortisol concentrations; also recorded: decreased cortisol concentrations; also recorded: effectively reduce
cortisol concentrations (cortisol; 24 h post-castration, between treatments): not effective
total UPAPS scores [1]: did not decrease; also recorded: behavioral differences were not noted
